Earlier results, collected in patent US20150005255A1, “COSMETIC COMPOSITION, FORMULATION IN GEL-CREAM AND ITS USE” (EMS S.A., priority 2013, published 2015).

Tests used:
lysosomal enzymes = conditions: in skin care products

Substance: Escin
- reduction of lysosomal activity (lysosomal enzymes): up to 30%

Substance: acefylline methylsilanol mannuronate [Xantalgosil C]
- volume of observed areas with cellulite (localized lipodystrophy; formula of Xantalgosil C applied twice daily for one month, 25 volunteers): reduction of volume in observed areas
- activation of adipocyte lipolysis (localized lipodystrophy; in vivo): outstanding action
